Test results as given in publication PMC5658702, “Lysine acetylome profiling uncovers novel histone deacetylase substrate proteins in Arabidopsis” (Molecular Systems Biology, 2017).
Residue numbers refer to the chain shown, from its start.

How the values were obtained:
Format in all cases: biochemical
[1] = biological target: T1, RCA-β1 (RCAβ1; 6x-HisRCAβ1) (Arabidopsis thaliana, UniProt F4IVZ7, K438R); assay: ATPase activity, KinaseGlo Max luminescent ATP consumption assay; settings: read-out: % inhibition at 55 uM ADP
T1 construct: N-terminal 6xHis tag, pCDFDuet-1, E. coli Rosetta-gami
T1 sequence (F4IVZ7 59-441 K438R): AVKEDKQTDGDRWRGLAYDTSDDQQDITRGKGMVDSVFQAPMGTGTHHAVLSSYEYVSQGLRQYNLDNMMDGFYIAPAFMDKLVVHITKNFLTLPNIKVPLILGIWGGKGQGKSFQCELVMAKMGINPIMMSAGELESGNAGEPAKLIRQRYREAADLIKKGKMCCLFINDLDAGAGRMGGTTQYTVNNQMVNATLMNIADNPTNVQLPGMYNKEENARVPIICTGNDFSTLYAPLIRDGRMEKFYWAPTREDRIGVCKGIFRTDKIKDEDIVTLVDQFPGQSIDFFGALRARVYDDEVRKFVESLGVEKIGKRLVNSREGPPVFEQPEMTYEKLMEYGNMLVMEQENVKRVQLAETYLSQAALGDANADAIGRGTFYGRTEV

[2] = biological target: T2, RCA-β1 (RCAβ1; 6x-HisRCAβ1) (Arabidopsis thaliana, UniProt F4IVZ7, K438Q); assay: as above; settings: read-out: % inhibition at 55 uM ADP
T2 construct: N-terminal 6xHis tag, pCDFDuet-1, E. coli Rosetta-gami
T2 sequence (F4IVZ7 59-441 K438Q): T1 sequence (F4IVZ7 59-441 K438R) with R380Q

[3] = biological target: T3, RCA-β1 (RCAβ1; 6x-HisRCAβ1) (Arabidopsis thaliana, UniProt F4IVZ7); assay: as above; settings: read-out: % inhibition at 55 uM ADP
T3 construct: N-terminal 6xHis tag, pCDFDuet-1, E. coli Rosetta-gami
T3 sequence (F4IVZ7 59-441): T1 sequence (F4IVZ7 59-441 K438R) with R380K

HDA14 (6xHis-HDA14) = biological target: T4, HDA14 (6xHis-HDA14) (Arabidopsis thaliana, UniProt Q941D6); assay: colorimetric deacetylase assay, acetylated p53 peptide p53-5,2-ANB, trypsin-coupled, […] nm
T4 construct: lacks first 45 aa (predicted signal peptide); N-terminal 6xHis tag (pEXP-5-NT/TOPO); E. coli BL21(DE3); apoenzyme reloaded with Zn2+ or Co2+
T4 sequence (Q941D6 46-423): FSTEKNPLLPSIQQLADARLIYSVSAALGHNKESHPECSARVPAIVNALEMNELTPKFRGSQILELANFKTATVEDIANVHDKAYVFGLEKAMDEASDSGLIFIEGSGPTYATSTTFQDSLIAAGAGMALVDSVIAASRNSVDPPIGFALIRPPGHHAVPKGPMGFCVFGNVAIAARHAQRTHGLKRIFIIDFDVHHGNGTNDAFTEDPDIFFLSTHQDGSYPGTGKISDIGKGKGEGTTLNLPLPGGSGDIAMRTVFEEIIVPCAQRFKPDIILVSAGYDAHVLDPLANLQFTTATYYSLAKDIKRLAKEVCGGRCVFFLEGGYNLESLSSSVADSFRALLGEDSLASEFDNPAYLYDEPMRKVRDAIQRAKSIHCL

inhibition at 55 µM [1] [%]	inhibition at 55 µM [2] [%]	inhibition at 55 µM [3] [%]	inhibition at 5 µM (HDA14 (6xHis-HDA14)) [%]	Structure (SMILES)
~30	~8	~19	–	Nc1ncnc2c1ncn2[C@@H]1O[C@H](COP(=O)(O)OP(=O)(O)O)[C@@H](O)[C@H]1O [ADP]
–	–	–	80	CC(/C=C/C(=O)NO)=C\[C@@H](C)C(=O)c1ccc(N(C)C)cc1 [trichostatin A]
